Some targets named below: Carbonic anhydrase 12 (Homo sapiens, UniProt O43570); Carbonic anhydrase 1 (Homo sapiens, UniProt P00915); Carbonic anhydrase 9 (Homo sapiens, UniProt Q16790); Carbonic anhydrase 2 (Homo sapiens, UniProt P00918).

Structures are written as SMILES.

A word on the Ki: it is a dissociation constant, usually derived from enzyme kinetics or from competition with a known ligand. A higher Ki goes with a looser hold on the target.

Chain of Carbonic anhydrase 1 (P00915 whole entry): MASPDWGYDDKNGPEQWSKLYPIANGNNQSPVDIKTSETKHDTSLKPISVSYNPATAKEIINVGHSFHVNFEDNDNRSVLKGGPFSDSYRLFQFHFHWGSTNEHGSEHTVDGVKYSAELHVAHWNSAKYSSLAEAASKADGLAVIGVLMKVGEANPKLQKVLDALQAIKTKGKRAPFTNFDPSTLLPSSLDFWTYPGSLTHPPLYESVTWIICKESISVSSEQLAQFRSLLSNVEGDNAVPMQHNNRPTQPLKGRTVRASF
Chain of Carbonic anhydrase 12 (O43570 whole entry): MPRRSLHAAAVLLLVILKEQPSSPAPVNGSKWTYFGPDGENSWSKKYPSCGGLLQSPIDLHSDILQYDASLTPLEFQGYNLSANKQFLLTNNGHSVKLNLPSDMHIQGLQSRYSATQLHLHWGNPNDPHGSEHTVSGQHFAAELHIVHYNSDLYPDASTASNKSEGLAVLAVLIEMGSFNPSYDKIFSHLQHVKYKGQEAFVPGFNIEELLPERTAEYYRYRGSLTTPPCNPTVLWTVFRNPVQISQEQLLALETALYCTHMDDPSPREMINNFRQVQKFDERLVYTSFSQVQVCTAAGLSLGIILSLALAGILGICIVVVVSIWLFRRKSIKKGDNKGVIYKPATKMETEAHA

`NS(=O)(=O)c1ccc(CCNC(=S)Nc2ccc(-c3c4ccc(=O)cc-4oc4cc(O)ccc34)c(C(=O)O)c2)cc1` came in with a Ki on Carbonic anhydrase 12 of 0.005 µM.

`NS(=O)(=O)c1cccc(N2C(=O)c3c(Br)c(Br)c(Br)c(Br)c3C2=O)c1`: the Ki at Carbonic anhydrase 12 came out at 0.019 µM; on Carbonic anhydrase 1, 0.34 µM.

Turning to `NS(=O)(=O)c1ccccc1N1C(=O)c2c(Br)c(Br)c(Br)c(Br)c2C1=O`, the Ki on Carbonic anhydrase 9 was 0.234 µM; at Carbonic anhydrase 12, 0.197 µM; on Carbonic anhydrase 2 it was 0.19 µM; at Carbonic anhydrase 1, above 10 µM.

In the case of `NS(=O)(=O)c1ccc(N2C(=O)c3c(Br)c(Br)c(Br)c(Br)c3C2=O)c(F)c1`, the inhibitory constant (Ki) on Carbonic anhydrase 9 stood at 0.0094 µM; at Carbonic anhydrase 12, 0.0075 µM; at Carbonic anhydrase 2 it was 0.096 µM; at Carbonic anhydrase 1 it was 0.77 µM.

For `NS(=O)(=O)c1ccc(N2C(=O)c3c(Br)c(Br)c(Br)c(Br)c3C2=O)c(Cl)c1`, the inhibitory constant (Ki) on Carbonic anhydrase 9 came out at 0.0085 µM; on Carbonic anhydrase 12 it was 0.0059 µM; on Carbonic anhydrase 2, 0.055 µM; on Carbonic anhydrase 1, 0.208 µM.

`NS(=O)(=O)c1ccc(N2C(=O)c3c(Br)c(Br)c(Br)c(Br)c3C2=O)c(Br)c1`: the Ki on Carbonic anhydrase 9 stood at 0.0088 µM; at Carbonic anhydrase 12 it was 0.0065 µM; on Carbonic anhydrase 2 it was 0.047 µM; on Carbonic anhydrase 1 it was 0.143 µM.

Consider `NS(=O)(=O)c1ccc(N2C(=O)c3c(Br)c(Br)c(Br)c(Br)c3C2=O)cc1`, for which the Ki on Carbonic anhydrase 9 was found to be 0.0091 µM; at Carbonic anhydrase 12 it was 0.0061 µM; on Carbonic anhydrase 2 it was 0.068 µM; at Carbonic anhydrase 1, 0.432 µM.

For the compound `NS(=O)(=O)c1ccc(CN2C(=O)c3c(Br)c(Br)c(Br)c(Br)c3C2=O)cc1`, the figures for the inhibition constant (Ki) at Carbonic anhydrase 9, on Carbonic anhydrase 12 and at Carbonic anhydrase 1 were 0.0123 µM, 0.0123 µM and 0.251 µM, respectively.

For the compound `NS(=O)(=O)c1ccc(CCN2C(=O)c3c(Br)c(Br)c(Br)c(Br)c3C2=O)cc1`, the results for the Ki on Carbonic anhydrase 9 and on Carbonic anhydrase 12 were 0.0159 µM and 0.0102 µM, respectively.

Values taken from ChEMBL document CHEMBL2424648, “Carbonic anhydrase inhibitors: synthesis and inhibition of the human carbonic anhydrase isoforms I, II, VII, IX and XII with benzene sulfonamides incorporating 4,5,6,7-tetrabromophthalimide moiety” (Bioorg Med Chem, 2013).
